Reference: patent US5013542A, “Method to inhibit adhesion of disease-causing microorganisms to teeth” (Forsyth Dental Infirmary for Children, priority 1988, dated 1991)
Where no end group is shown, it is not given here.

How the values were obtained:
Assay in all cases: Adhesion of radioactively labeled bacteria to treated hydroxyapatite (HA)
Assay type in all cases: cell-based
[1] = tested on: Actinomyces viscosus
Experimental: (§1) PRP-1 and PRP-1(Tl) were investigated for their abilities to promote adhesion of bacteria to HA. Essentially, the method is to treat HA samples with nothing (negative control), saliva (positive control), or the respective proteins or peptides. The excess agent is removed by washing, and suspensions of radioactively labeled bacteria are added to the treated HA. After a suitable time, the excess bacteria are removed by washing and those remaining adsorbed to the HA are counted in a scintillation counter. In the table of results, bacterial adsorption to saliva-treated HA is considered to be 100%, and adsorption to PRP-1 or PRP-1(Tl)-treated HA expressed as a percentage of this reference value. This approach is necessary because of the diverse behaviors of different bacteria.

[2] = tested on: Bacteroides gingivalis
Experimental: as §1

[3] = tested on: Streptococcus mitis
Experimental: as §1

[4] = tested on: Streptococcus mutans
Experimental: as §1

[5] = tested on: Streptococcus sanguis
Experimental: as §1

[6] = HA treated with the protein/peptide, saliva-treated HA = 100%

## PRP-1(T1): residues 1-30, highly acidic phosphoserine-containing amino-terminal segment of PRP-1 obtained by tryptic digestion at ARG(30) (QDLDEDVSQEDVPLVISDGGDSEQFIDEER; also: phosphoserine-containing, positions not given here; UniProt P02810 17-46, looked up, fragment)
[1]; [6]
  PERCENT ADHESION COMPARED TO SALIVA-TREATED HA: 17%
[1]; versus saliva-treated HA
  adhesion of organism to treated HA (in words): significantly and profoundly depressed
[2]; B. gingivalis, versus saliva-treated HA
  adhesion of organism to treated HA (in words): significantly and profoundly depressed
[2]; Bacteroides gingivalis, HA treated with the protein/peptide, saliva-treated HA = 100%
  PERCENT ADHESION COMPARED TO SALIVA-TREATED HA: 20%
[3]; [6]
  PERCENT ADHESION COMPARED TO SALIVA-TREATED HA: 26%
[3]; versus saliva-treated HA
  adhesion of organism to treated HA (in words): significantly and profoundly depressed
[4]; [6]
  PERCENT ADHESION COMPARED TO SALIVA-TREATED HA: 17%
[4]; versus saliva-treated HA
  adhesion of organism to treated HA (in words): significantly and profoundly depressed
[5]; S. sanguis, versus saliva-treated HA
  adhesion of organism to treated HA (in words): significantly and profoundly depressed
[5]; Streptococcus sanguis, HA treated with the protein/peptide, saliva-treated HA = 100%
  PERCENT ADHESION COMPARED TO SALIVA-TREATED HA: 4%
